Data reported in patent publication US6737383B1, “Herbicidal oxadiazolidines” (priority 1999, dated 2004).

How the values were obtained:
cocklebur = experiment: Test B pre/postemergence cocklebur; format: in vivo, Xanthium strumarium
Outline: (§1)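 Test chemicals in a non-phytotoxic solvent mixture with surfactant were sprayed preemergence onto planted seeds and postemergence onto plants 2 to 18 cm tall (1- to 4-leaf stage). After twelve to sixteen days in a greenhouse, injury was visually rated against untreated controls from 0 (no effect) to 10 (complete control).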

soybean = experiment: Test B pre/postemergence soybean; format: in vivo, Glycine max
Outline: as §1

pigweed = experiment: Test B pre/postemergence pigweed; format: in vivo, Amaranthus retroflexus
Outline: as §1

morningglory = experiment: Test B pre/postemergence morningglory; format: in vivo, Ipomoea hederacea
Outline: as §1

[1] = Postemergence, Rate 62 g/ha, scale 0 to 10, 0 is no effect, 10 is complete control
[2] = Postemergence, Rate 250 g/ha, scale 0 to 10, 0 no effect, 10 complete control
[3] = Preemergence, Rate 62 g/ha, scale 0 to 10, 0 is no effect, 10 is complete control
[4] = Preemergence, Rate 125 g/ha, scale 0 to 10 (0 no effect, 10 complete control)
[5] = Preemergence, Rate 250 g/ha, scale of 0 to 10 where 0 is no effect and 10 is complete control
[6] = Rate 125 g/ha, Postemergence, scale 0 to 10, 0 no effect, 10 complete control
[7] = Rate 500 g/ha, Postemergence, 0 to 10 scale (0 no effect, 10 complete control)
[8] = Preemergence, Rate 500 g/ha, scale 0 (no effect) to 10 (complete control)
[9] = Preemergence, Rate 31 g/ha, visual rating, scale 0 to 10 (0 no effect, 10 complete control)
[10] = Rate 31 g/ha, Postemergence, scale 0 to 10
[11] = Preemergence, Rate 62 g/ha, scale 0 to 10 (0 no effect, 10 complete control)
[12] = Rate 500 g/ha, Postemergence, scale 0 to 10, 0 no effect, 10 complete control

SMILES | Cocklebur plant response rating (cocklebur; [1]) | Cocklebur plant response rating (cocklebur; [2]) | Plant response rating, Cocklebur (cocklebur; [4]) | Plant response rating, Cocklebur (cocklebur; [5]) | Cocklebur plant response rating (cocklebur; [6]) | Soybean plant response rating (soybean; [1]) | Soybean plant response rating (soybean; [2]) | Plant response rating, Soybean (soybean; [4]) | Plant response rating, Soybean (soybean; [5]) | Soybean plant response rating (soybean; [6]) | Redroot pigweed plant response rating (pigweed; [1]) | Redroot pigweed plant response rating (pigweed; [2]) | Plant response rating, Redroot pigweed (pigweed; [4]) | Plant response rating, Redroot pigweed (pigweed; [5]) | Redroot pigweed plant response rating (pigweed; [6]) | Morningglory plant response rating (morningglory; [1]) | Morningglory plant response rating (morningglory; [2]) | Plant response rating, Morningglory (morningglory; [4]) | Plant response rating, Morningglory (morningglory; [5]) | Morningglory plant response rating (morningglory; [6]) | also measured
Cc1ccc(-n2c(=O)on(C(=O)N(c3ccc(F)cc3F)C(C)C)c2=O)c(C)c1 [Compound 24] | 0 | 1 | 0 | 0 | 0 | 3 | 3 | 0 | 0 | 3 | 0 | 6 | 6 | 6 | 2 | 9 | 10 | 0 | 0 | 9 | Plant response rating, Cocklebur (cocklebur; [3]): 0; Cocklebur plant response rating (cocklebur; [7]): 2; Plant response rating, Soybean (soybean; [3]): 0; Soybean plant response rating (soybean; [8]): 2; Plant response rating, Redroot pigweed (pigweed; [3]): 2; Redroot pigweed plant response rating (pigweed; [8]): 9; Redroot pigweed plant response rating (pigweed; [7]): 6; Plant response rating, Morningglory (morningglory; [3]): 0; Morningglory plant response rating (morningglory; [8]): 0
COc1ccc(-n2c(=O)on(C(=O)N(c3ccc(F)cc3)C(C)C)c2=O)c(OC)c1 [Compound 33] | 0 | 6 | 0 | 0 | 0 | 2 | 3 | 0 | 0 | 3 | 0 | 3 | 0 | 0 | 2 | 3 | 9 | 0 | 1 | 8 | Cocklebur plant response rating (cocklebur; [9]): 0; Plant response rating, Cocklebur (cocklebur; [3]): 0; Cocklebur plant response rating (cocklebur; [10]): 0; Soybean plant response rating (soybean; [9]): 0; Plant response rating, Soybean (soybean; [3]): 0; Redroot pigweed plant response rating (pigweed; [9]): 0; Plant response rating, Redroot pigweed (pigweed; [3]): 0; Redroot pigweed plant response rating (pigweed; [10]): 0; Morningglory plant response rating (morningglory; [9]): 0; Plant response rating, Morningglory (morningglory; [3]): 0; Morningglory plant response rating (morningglory; [10]): 3
COc1cccc(C)c1-n1c(=O)on(C(=O)N(c2ccc(F)cc2)C(C)C)c1=O [Compound 62] | 0 | 6 | – | 0 | 4 | 1 | 2 | 0 | 0 | 1 | 0 | 0 | 0 | 0 | 0 | 2 | 2 | 0 | 0 | 2 | Cocklebur plant response rating (cocklebur; [11]): 0; Cocklebur plant response rating (cocklebur; [8]): 5; Cocklebur plant response rating (cocklebur; [12]): 6; Soybean plant response rating (soybean; [11]): 0; Soybean plant response rating (soybean; [8]): 0; Soybean plant response rating (soybean; [12]): 3; Redroot pigweed plant response rating (pigweed; [11]): 0; Redroot pigweed plant response rating (pigweed; [8]): 0; Redroot pigweed plant response rating (pigweed; [12]): 0; Morningglory plant response rating (morningglory; [11]): 0; Morningglory plant response rating (morningglory; [8]): 3; Morningglory plant response rating (morningglory; [12]): 6
CCN(Cc1ccccc1)C(=O)n1oc(=O)n(-c2ccccc2C)c1=O [Compound 71] | 0 | 0 | 0 | 0 | 0 | 0 | 0 | 0 | 0 | 0 | 0 | 0 | 0 | 0 | 0 | 0 | 0 | 0 | 0 | 0 | Cocklebur plant response rating (cocklebur; [11]): 0; Cocklebur plant response rating (cocklebur; [8]): 0; Cocklebur plant response rating (cocklebur; [12]): 0; Soybean plant response rating (soybean; [11]): 0; Soybean plant response rating (soybean; [8]): 0; Soybean plant response rating (soybean; [12]): 0; Redroot pigweed plant response rating (pigweed; [11]): 0; Redroot pigweed plant response rating (pigweed; [8]): 0; Redroot pigweed plant response rating (pigweed; [12]): 0; Morningglory plant response rating (morningglory; [11]): 0; Morningglory plant response rating (morningglory; [8]): 0; Morningglory plant response rating (morningglory; [12]): 0
COc1cccc(C)c1-n1c(=O)on(C(=O)N(c2ccccc2)C(C)C)c1=O [Compound 73] | 0 | 0 | 0 | 0 | 0 | 0 | 3 | 0 | 0 | 0 | 0 | 0 | 0 | 0 | 0 | 3 | 4 | 0 | 0 | 3 | Cocklebur plant response rating (cocklebur; [11]): 0; Cocklebur plant response rating (cocklebur; [8]): 0; Cocklebur plant response rating (cocklebur; [12]): 2; Soybean plant response rating (soybean; [11]): 0; Soybean plant response rating (soybean; [8]): 0; Soybean plant response rating (soybean; [12]): 3; Redroot pigweed plant response rating (pigweed; [11]): 0; Redroot pigweed plant response rating (pigweed; [8]): 0; Redroot pigweed plant response rating (pigweed; [12]): 0; Morningglory plant response rating (morningglory; [11]): 0; Morningglory plant response rating (morningglory; [8]): 0; Morningglory plant response rating (morningglory; [12]): 4
